Results taken from patent US9181193B2, “Indenoquinolone compound, preparation method and use thereof” (Second Military Medical University, PLA, priority 2010, dated 2015).
Values after ≈ are worked out from the molar mass of the structure shown.

Legend:
[1] = tested on: A549 (human lung cancer cells); test: MTT in vitro anti-tumor activity test, A549; assay type: cell-based; conditions: for IC50: Homo sapiens, A549, 72 h, read-out: A549 IC50
[2] = tested on: Colo205 (human colon cancer cells); test: MTT in vitro anti-tumor activity test, Colo205; assay type: cell-based; conditions: for IC50: Homo sapiens, COLO 205, 72 h, read-out: Colo205 IC50
[3] = tested on: MDA-MB-435 (human breast cancer cells); test: MTT in vitro anti-tumor activity test, MDA-MB-435; assay type: cell-based; conditions: for IC50: Homo sapiens, MDA-MB-435, 72 h, read-out: MDA-MB-435 IC50
[4] = tested on: HepG2 (human hepatoma cells); test: MTT in vitro anti-tumor activity test, HepG2; assay type: cell-based; conditions: for IC50: Homo sapiens, HepG2, 72 h, read-out: HepG2 IC50
[5] = tested on: human lung cancer cell line A549; test: Anti-tumor activity test in vivo, nude mouse model of A549; conditions: nude mouse model of A549, dose of 1-200 mg/kg weight
Excerpt: The activities of some compounds in vivo in the nude mouse model of human lung cancer cell line A549 were detected by using literature methods (WEI Hong. Medical Experiments Zoology. 2nd edition. Chengdu: Sichuan Science and Technology Press, 2001: 595-596).

[6] = MDA-MB-435, 100 μg/mL, MTT, 72 h
[7] = A549 human lung cancer cells, MTT, 72 h
[8] = Colo205 human colon cancer cells, MTT, 72 h
[9] = MDA-MB-435 human breast cancer cells, MTT, 72 h
[10] = HepG2 human hepatoma cells, MTT, 72 h
[11] = inhibition at 100 μg/mL, MTT assay, 72 h, A549 cells
[12] = inhibition at 100 μg/mL, MTT assay, 72 h, Colo205 cells
[13] = inhibition at 100 μg/mL, MTT assay, 72 h, MDA-MB-435 cells
[14] = inhibition at 100 μg/mL, MTT assay, 72 h, HepG2 cells
[15] = MTT assay, 72 h incubation, A549 cells
[16] = MTT assay, 72 h incubation, Colo205 cells
[17] = MTT assay, 72 h incubation, MDA-MB-435 cells
[18] = MTT assay, 72 h incubation, HepG2 cells

| Structure (SMILES) | A549 IC50 [1, 15] [µg/mL] | Colo205 IC50 [2, 16] [µg/mL] | MDA-MB-435 IC50 [3, 17] [µg/mL] | HepG2 IC50 [4, 18] [µg/mL] | A549 100 μg/mL IC % ([1]; A549, 100 μg/mL, MTT, 72 h) [%] | Colo205 100 μg/mL IC % ([2]; Colo205, 100 μg/mL, MTT, 72 h) [%] | MDA-MB-435 100 μg/mL IC % [3, 6] [%] | HepG2 100 μg/mL IC % ([4]; HepG2, 100 μg/mL, MTT, 72 h) [%] | anti-tumor activity in vivo [5] | A549 100 μg/mL IC % [1, 11] [%] | Colo205 100 μg/mL IC % [2, 12] [%] | MDA-MB-435 100 μg/mL IC % [3, 13] [%] | HepG2 100 μg/mL IC % [4, 14] [%] | also measured |
| --- | --- | --- | --- | --- | --- | --- | --- | --- | --- | --- | --- | --- | --- | --- |
| COc1ccc2c(c1)C(=O)c1c-2c(OCCN(C)C)nc2ccccc12 [Compound 1] | – | – | – | – | 100 | 100 | 95.81 | 99.40 | good anti-tumor activity in vivo | – | – | – | – | IC50 [1]: 0.983 µg/mL (≈ 2.82 µM); IC50 [2]: 0.621 µg/mL (≈ 1.78 µM); IC50 [3]: 1 µg/mL (≈ 2.87 µM); IC50 [4]: 0.721 µg/mL (≈ 2.07 µM); melting point: 116 to 118 °C |
| COc1ccc2c(c1)C(=O)c1c-2c(OCCCN(C)C)nc2ccccc12 [Compound 6] | – | – | – | – | 100 | 100 | 100 | 98.33 | good anti-tumor activity in vivo | – | – | – | – | A549 IC50 [1, 7]: 1.14 µg/mL; Colo205 IC50 [2, 8]: 0.719 µg/mL; MDA-MB-435 IC50 [3, 9]: 3.64 µg/mL; HepG2 IC50 [4, 10]: 2.17 µg/mL |
| CCN(CC)CCOc1nc2ccc(OC)cc2c2c1-c1ccc(OC)cc1C2=O [Compound 14] | – | – | – | – | 100 | 97.47 | 99.95 | 100 | good anti-tumor activity in vivo | – | – | – | – | A549 IC50 [1, 7]: 6.11 µg/mL; Colo205 IC50 [2, 8]: 0.580 µg/mL; MDA-MB-435 IC50 [3, 9]: 1.29 µg/mL; HepG2 IC50 [4, 10]: 0.552 µg/mL |
| COc1ccc2c(c1)C(=O)c1c-2c(OCCN(C)C)nc2cc(OC)c(OC)cc12 [Compound 20] | – | – | – | – | 100 | 93.79 | 99.28 | 99.17 | good anti-tumor activity in vivo | – | – | – | – | A549 IC50 [1, 7]: 13.78 µg/mL; Colo205 IC50 [2, 8]: 0.606 µg/mL; MDA-MB-435 IC50 [3, 9]: 0.99 µg/mL; HepG2 IC50 [4, 10]: 1.28 µg/mL |
| COc1ccc2c(c1)C(=O)c1c-2c(=O)n(CCN(C)C)c2ccccc12 [Compound 31, 5-(2-dimethylaminoethyl)-9-methoxy-5H-indeno[1,2-c]quinoline-6,11-dione] | – | – | – | – | – | – | – | – | – | 93.62 | 88.35 | 86.09 | 90.60 | IC50 [1]: 1.72 µg/mL (≈ 4.94 µM); IC50 [2]: 1.2 µg/mL (≈ 3.44 µM); IC50 [3]: 1.83 µg/mL (≈ 5.25 µM); IC50 [4]: 0.746 µg/mL (≈ 2.14 µM); melting point: 198 to 200 °C |
| COc1ccc2c(c1)c1c(c(=O)n2CCn2ccnc2)-c2ccc(Br)cc2C1=O [Compound 43] | >100 | 34.21 | 83.60 | >100 | – | – | – | – | – | 4.26 | 87.42 | 53.07 | 9.73 | – |
| COc1ccc2c(c1)C(=O)c1c-2c(=O)n(CCN2CCOCC2)c2cc(OC)c(OC)cc12 [Compound 45] | 37.85 | 16.76 | 7.86 | 6.27 | – | – | – | – | – | 62.84 | 66.89 | 72.95 | 84.31 | – |
| CC[C@@]1(O)C(=O)OCc2c1cc1n(c2=O)Cc2cc3cc(O)ccc3nc2-1 [HCPT, 10-hydroxycamptothecin, reference compound] | – | – | – | – | 84.68 | 88.14 | 96.71 | 100 | – | 84.68 | 88.14 | 96.71 | 100 | IC50 [1]: 0.00364 µg/mL (≈ 0.00999 µM); IC50 [2]: 0.0049 µg/mL (≈ 0.0134 µM); IC50 [3]: 0.00127 µg/mL (≈ 0.00349 µM); IC50 [4]: 0.147 µg/mL (≈ 0.403 µM) |

More lines, main results first:

| A549 IC50 [1, 15] [µg/mL] | Colo205 IC50 [2, 16] [µg/mL] | MDA-MB-435 IC50 [3, 17] [µg/mL] | HepG2 IC50 [4, 18] [µg/mL] | Structure (SMILES) | A549 100 μg/mL IC % ([1]; A549, 100 μg/mL, MTT, 72 h) [%] | Colo205 100 μg/mL IC % ([2]; Colo205, 100 μg/mL, MTT, 72 h) [%] | MDA-MB-435 100 μg/mL IC % [3, 6] [%] | HepG2 100 μg/mL IC % ([4]; HepG2, 100 μg/mL, MTT, 72 h) [%] | anti-tumor activity in vivo [5] | A549 100 μg/mL IC % [1, 11] [%] | Colo205 100 μg/mL IC % [2, 12] [%] | MDA-MB-435 100 μg/mL IC % [3, 13] [%] | HepG2 100 μg/mL IC % [4, 14] [%] | also measured |
| --- | --- | --- | --- | --- | --- | --- | --- | --- | --- | --- | --- | --- | --- | --- |
| 8.03 | 1.27 | 3.12 | 3.77 | COc1ccc2c(c1)-c1c(c3cc(OC)ccc3n(CCN(C)C)c1=O)C2=O [Compound 42] | – | – | – | – | – | 87.75 | 100 | 100 | 100 | – |
| 1.42 | 0.346 | 0.014 | 1.93 | COc1ccc2c(c1)C(=O)c1c-2c(=O)n(CCN2CCCC2)c2cc(OC)c(OC)cc12 [Compound 44] | – | – | – | – | – | 94.74 | 92.66 | 78.20 | 84.59 | – |
| 12.52 | 22.18 | 0.267 | 12.02 | COc1ccc2c(c1)C(=O)c1c-2c(=O)n(CCCN(C)C)c2cc(OC)c(OC)cc12 [Compound 46] | – | – | – | – | good anti-tumor activity in vivo | 68.78 | 87.44 | 85.86 | 90.77 | – |
| 10.60 | 1.66 | 5.30 | 8.33 | COc1cc2c3c(c(=O)n(CCN(C)C)c2cc1OC)-c1ccc(Cl)cc1C3=O [Compound 47] | – | – | – | – | – | 87.20 | 88.74 | 100 | 64.50 | – |
| 23.76 | 11.75 | 12.36 | 60.46 | COc1cc2c3c(c(=O)n(CCn4ccnc4)c2cc1OC)-c1ccc(Cl)cc1C3=O [Compound 48] | – | – | – | – | – | 79.61 | 89.59 | 100 | 62.67 | – |
| >100 | 69.03 | >100 | 21.05 | COc1cc2c3c(c(=O)n(CCN4CCOCC4)c2cc1OC)-c1ccc(Cl)cc1C3=O [Compound 49] | – | – | – | – | – | 28.48 | 50.06 | 48.01 | 59.34 | – |
| 3.59 | 15.89 | 1.12 | 3.71 | COc1cc2c3c(c(=O)n(CCCN(C)C)c2cc1OC)-c1ccc(Cl)cc1C3=O [Compound 50] | – | – | – | – | – | 85.91 | 76.93 | 89.80 | 36.98 | – |
